The values below come from doi:10.1101/2024.08.13.607785v1 (biorxiv, 2024).

Molecules are shown by their SMILES. Like-named read-outs stand apart in the source and are kept apart here.

Test in all cases: biochemical
Holding throughout (parameters): species or system human cell line lysate

Assay [1] concerns the target Tyrosine-protein kinase CSK ; CSK ; P41240 (Homo sapiens, UniProt P41240).
In assay [2] the target is Non-receptor tyrosine-protein kinase TNK1 ; TNK1 ; Q13470 (Homo sapiens, UniProt Q13470).
Sequence of Non-receptor tyrosine-protein kinase TNK1 ; TNK1 ; Q13470 (Q13470 whole entry): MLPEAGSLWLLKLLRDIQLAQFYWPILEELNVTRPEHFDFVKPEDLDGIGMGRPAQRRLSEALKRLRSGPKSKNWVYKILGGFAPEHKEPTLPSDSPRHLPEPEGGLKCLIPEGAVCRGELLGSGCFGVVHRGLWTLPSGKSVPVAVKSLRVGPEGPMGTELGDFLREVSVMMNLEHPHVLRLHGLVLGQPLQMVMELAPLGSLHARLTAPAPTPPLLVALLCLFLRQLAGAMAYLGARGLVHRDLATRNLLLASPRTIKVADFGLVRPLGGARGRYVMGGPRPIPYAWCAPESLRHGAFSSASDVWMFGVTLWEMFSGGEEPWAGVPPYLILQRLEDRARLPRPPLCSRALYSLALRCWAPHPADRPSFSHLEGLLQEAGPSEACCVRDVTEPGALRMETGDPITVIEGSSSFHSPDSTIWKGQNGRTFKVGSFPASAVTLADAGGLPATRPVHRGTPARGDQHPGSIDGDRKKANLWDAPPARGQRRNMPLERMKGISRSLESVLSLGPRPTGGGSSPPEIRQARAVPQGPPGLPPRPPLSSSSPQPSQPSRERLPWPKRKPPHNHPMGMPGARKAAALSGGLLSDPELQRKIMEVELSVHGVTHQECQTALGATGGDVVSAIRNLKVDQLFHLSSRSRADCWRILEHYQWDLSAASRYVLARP
Assay [3] deals with Serine/threonine-protein kinase 4 ; STK4 ; Q13043 (Homo sapiens, UniProt Q13043).
Sequence of Serine/threonine-protein kinase 4 ; STK4 ; Q13043 (Q13043 whole entry, one chain of several): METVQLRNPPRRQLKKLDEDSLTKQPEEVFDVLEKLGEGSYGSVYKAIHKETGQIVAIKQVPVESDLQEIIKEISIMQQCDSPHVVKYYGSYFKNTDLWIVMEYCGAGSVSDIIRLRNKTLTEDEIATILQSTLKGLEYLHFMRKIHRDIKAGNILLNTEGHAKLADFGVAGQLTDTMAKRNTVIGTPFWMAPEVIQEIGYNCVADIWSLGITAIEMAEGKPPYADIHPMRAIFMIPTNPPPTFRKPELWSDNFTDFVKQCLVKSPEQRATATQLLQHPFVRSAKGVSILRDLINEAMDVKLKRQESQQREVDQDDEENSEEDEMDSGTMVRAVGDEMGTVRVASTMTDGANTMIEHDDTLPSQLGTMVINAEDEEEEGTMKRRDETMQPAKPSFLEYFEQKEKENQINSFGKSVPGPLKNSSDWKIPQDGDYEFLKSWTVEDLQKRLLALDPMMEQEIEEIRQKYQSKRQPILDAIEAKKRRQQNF
The target of assay [4] is Serine/threonine-protein kinase TAO1 ; TAOK1 ; Q7L7X3 (Homo sapiens, UniProt Q7L7X3).
In assay [5] the target is Tyrosine-protein kinase HCK ; HCK ; P08631 (Homo sapiens, UniProt P08631).
In assay [6] the target is Receptor-type tyrosine-protein kinase FLT3 ; FLT3 ; P36888 (Homo sapiens, UniProt P36888).
Assay [7] concerns the target Serine/threonine-protein kinase BRSK2 ; BRSK2 ; Q8IWQ3 (Homo sapiens, UniProt Q8IWQ3).
Assay [8] addresses Casein kinase II subunit alpha ; CSNK2A1 ; P68400 (Homo sapiens, UniProt P68400).
The target in assay [9] is Phosphoinositide 3-kinase regulatory subunit 4 ; PIK3R4 ; Q99570 (Homo sapiens, UniProt Q99570).
In assay [10] the target is Mitogen-activated protein kinase kinase kinase kinase 2 ; MAP4K2 ; Q12851 (Homo sapiens, UniProt Q12851).
Assay [11] concerns the target Serine/threonine-protein kinase SIK3 ; SIK3 ; Q9Y2K2 (Homo sapiens, UniProt Q9Y2K2).
The target in assay [12] is Serine/threonine-protein kinase SIK2 ; SIK2 ; Q9H0K1 (Homo sapiens, UniProt Q9H0K1).
The target in assay [13] is Tyrosine-protein kinase JAK2 ; JAK2 ; O60674 (Homo sapiens, UniProt O60674).
In assay [14] the target is Phosphatidylinositol 4,5-bisphosphate 3-kinase catalytic subunit beta ; PIK3CB ; P42338 (Homo sapiens, UniProt P42338).
The target of assay [15] is Isoform IB of Tyrosine-protein kinase ABL1 ; ABL1 ; P00519-2 (Homo sapiens, UniProt P00519).
The target of assay [16] is Interferon-induced, double-stranded RNA-activated protein kinase ; EIF2AK2 ; P19525 (Homo sapiens, UniProt P19525).
Assay [17] concerns the target Isoform 4 of Serine/threonine-protein kinase PAK 4 ; PAK4 ; O96013-4 (Homo sapiens, UniProt O96013).
The target in assay [18] is Mitogen-activated protein kinase kinase kinase 12 ; MAP3K12 ; Q12852 (Homo sapiens, UniProt Q12852).
In assay [19] the target is Ribosomal protein S6 kinase beta-1 ; RPS6KB1 ; P23443 (Homo sapiens, UniProt P23443).
Sequence of Ribosomal protein S6 kinase beta-1 ; RPS6KB1 ; P23443 (P23443 whole entry): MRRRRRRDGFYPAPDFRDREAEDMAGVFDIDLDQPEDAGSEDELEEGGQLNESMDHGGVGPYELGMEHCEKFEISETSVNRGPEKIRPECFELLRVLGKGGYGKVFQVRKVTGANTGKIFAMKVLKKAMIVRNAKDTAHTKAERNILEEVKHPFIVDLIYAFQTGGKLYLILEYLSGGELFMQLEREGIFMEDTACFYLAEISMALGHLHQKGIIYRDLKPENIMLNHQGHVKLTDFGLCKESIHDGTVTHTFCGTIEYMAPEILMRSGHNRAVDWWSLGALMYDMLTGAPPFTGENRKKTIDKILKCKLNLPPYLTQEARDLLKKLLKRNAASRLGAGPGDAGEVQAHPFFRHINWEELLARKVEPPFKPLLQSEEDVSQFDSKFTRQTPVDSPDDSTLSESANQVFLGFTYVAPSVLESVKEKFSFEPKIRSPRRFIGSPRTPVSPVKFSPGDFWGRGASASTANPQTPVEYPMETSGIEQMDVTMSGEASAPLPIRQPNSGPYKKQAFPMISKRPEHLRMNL
Assay [20] has as its target Ribosomal protein S6 kinase alpha-5 ; RPS6KA5 ; O75582 (Homo sapiens, UniProt O75582).
In assay [21] the target is Serine/threonine-protein kinase D3 ; PRKD3 ; O94806 (Homo sapiens, UniProt O94806).
Assay [22] concerns the target Serine/threonine-protein kinase haspin ; HASPIN ; Q8TF76 (Homo sapiens, UniProt Q8TF76).
Assay [23] concerns the target Isoform 6 of Tyrosine-protein kinase ABL2 ; ABL2 ; P42684-6 (Homo sapiens, UniProt P42684).
[24] abbreviates: read-out: BAY-1143572 (10 µM) / %Intensity relative to DMSO.
[25] abbreviates: read-out: BAY-1251152 (10 µM) / %Intensity relative to DMSO.

Sequence of Serine/threonine-protein kinase haspin ; HASPIN ; Q8TF76 (Q8TF76 whole entry, canonical isoform, one chain of several): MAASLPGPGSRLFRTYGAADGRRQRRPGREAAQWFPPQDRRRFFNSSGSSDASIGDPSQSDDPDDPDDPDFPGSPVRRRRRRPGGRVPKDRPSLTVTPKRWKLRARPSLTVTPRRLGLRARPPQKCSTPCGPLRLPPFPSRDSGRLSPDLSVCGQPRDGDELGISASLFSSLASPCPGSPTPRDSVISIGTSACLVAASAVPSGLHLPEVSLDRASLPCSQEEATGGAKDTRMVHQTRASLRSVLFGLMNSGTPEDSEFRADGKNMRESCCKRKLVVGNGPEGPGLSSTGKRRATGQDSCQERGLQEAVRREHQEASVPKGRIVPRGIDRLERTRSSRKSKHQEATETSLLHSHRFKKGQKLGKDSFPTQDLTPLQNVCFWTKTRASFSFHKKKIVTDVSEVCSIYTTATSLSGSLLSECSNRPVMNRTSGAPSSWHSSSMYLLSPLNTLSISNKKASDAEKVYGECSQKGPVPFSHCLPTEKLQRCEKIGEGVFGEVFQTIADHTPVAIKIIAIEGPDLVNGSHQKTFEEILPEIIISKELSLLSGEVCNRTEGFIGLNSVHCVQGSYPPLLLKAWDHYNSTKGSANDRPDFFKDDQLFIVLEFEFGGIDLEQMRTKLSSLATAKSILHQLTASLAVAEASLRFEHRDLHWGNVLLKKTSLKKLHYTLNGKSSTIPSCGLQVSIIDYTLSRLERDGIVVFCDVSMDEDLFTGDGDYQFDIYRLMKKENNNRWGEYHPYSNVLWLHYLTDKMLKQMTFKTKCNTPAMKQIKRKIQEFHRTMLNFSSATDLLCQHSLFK
Sequence of Isoform 4 of Serine/threonine-protein kinase PAK 4 ; PAK4 ; O96013-4 (O96013 whole entry, canonical isoform, one chain of several): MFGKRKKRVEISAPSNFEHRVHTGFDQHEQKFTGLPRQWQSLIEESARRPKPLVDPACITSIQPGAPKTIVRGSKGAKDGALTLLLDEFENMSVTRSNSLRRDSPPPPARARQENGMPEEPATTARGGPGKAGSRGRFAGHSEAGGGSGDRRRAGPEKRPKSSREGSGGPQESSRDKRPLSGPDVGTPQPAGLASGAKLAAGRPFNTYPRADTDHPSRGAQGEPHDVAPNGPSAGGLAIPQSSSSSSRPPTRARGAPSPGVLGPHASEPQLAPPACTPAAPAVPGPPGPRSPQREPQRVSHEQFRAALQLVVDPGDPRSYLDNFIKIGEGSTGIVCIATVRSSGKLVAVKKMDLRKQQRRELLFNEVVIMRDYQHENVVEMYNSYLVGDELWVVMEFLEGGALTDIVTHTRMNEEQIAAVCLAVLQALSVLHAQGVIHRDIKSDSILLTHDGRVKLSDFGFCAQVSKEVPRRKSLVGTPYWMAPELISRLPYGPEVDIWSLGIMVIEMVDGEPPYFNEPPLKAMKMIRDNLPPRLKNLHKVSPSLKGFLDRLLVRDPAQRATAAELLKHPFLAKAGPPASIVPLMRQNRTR
Sequence of Isoform 6 of Tyrosine-protein kinase ABL2 ; ABL2 ; P42684-6 (P42684 whole entry, canonical isoform): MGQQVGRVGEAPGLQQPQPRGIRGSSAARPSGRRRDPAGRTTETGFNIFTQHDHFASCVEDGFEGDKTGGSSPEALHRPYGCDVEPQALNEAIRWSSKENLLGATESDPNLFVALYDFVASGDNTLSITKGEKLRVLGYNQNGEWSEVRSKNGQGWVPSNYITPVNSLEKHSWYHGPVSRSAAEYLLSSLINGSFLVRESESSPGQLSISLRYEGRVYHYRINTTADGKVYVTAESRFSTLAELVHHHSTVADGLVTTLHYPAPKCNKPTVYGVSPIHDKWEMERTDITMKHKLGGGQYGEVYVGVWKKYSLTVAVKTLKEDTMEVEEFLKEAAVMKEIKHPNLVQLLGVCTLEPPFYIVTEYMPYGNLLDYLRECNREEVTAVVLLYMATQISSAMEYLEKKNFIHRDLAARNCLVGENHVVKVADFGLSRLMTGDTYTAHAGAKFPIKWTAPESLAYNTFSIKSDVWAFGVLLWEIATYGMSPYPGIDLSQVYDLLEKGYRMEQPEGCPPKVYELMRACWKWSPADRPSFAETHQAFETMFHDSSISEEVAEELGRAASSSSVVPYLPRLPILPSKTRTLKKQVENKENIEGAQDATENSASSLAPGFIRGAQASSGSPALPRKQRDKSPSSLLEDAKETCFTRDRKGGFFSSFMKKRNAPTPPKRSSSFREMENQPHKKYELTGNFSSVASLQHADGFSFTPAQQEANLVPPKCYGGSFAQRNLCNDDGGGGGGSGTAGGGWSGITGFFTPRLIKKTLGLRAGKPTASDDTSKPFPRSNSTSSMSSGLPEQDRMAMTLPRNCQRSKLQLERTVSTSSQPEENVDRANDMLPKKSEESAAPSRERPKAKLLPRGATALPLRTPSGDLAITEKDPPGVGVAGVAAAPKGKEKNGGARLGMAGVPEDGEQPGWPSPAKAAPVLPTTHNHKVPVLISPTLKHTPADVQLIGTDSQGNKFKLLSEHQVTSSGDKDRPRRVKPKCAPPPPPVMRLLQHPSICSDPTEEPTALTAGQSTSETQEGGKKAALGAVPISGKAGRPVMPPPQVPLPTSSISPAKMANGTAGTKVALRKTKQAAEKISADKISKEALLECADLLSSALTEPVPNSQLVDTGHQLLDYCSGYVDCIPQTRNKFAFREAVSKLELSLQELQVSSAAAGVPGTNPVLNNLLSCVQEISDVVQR
Sequence of Casein kinase II subunit alpha ; CSNK2A1 ; P68400 (P68400 whole entry, one chain of several): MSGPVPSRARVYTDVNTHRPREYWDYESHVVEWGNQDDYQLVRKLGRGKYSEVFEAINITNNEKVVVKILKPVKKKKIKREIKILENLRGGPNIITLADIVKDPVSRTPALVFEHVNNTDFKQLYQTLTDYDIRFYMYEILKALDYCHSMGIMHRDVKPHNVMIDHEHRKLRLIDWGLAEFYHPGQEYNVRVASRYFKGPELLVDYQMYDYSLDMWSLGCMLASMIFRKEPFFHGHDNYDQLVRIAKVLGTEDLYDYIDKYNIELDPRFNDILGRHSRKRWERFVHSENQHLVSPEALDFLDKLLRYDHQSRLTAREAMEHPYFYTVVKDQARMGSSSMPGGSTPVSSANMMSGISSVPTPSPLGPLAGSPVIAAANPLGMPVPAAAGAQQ

For the compound `COc1cc(F)ccc1-c1ncnc(Nc2cccc(C[S@](C)(=N)=O)c2)n1` [BAY-1143572], the remaining activity at 10 µM in assay [1] (setting [24]) turned out to be 112%; in [2] (setting [24]), 113%; in assay [3] (setting [24]), 108%; in assay [4] (setting [24]), 114%; in assay [5] (setting [24]), 108%; in assay [6] (setting [24]) it was 70.5%. Besides, the remaining activity at 10 µM in [7] (setting [24]) is 104%; in assay [8] (setting [24]) it was 110%; in [9] (setting [24]) it was 101%; in [10] (setting [24]) it was 106%; in [11] (setting [24]), 109%; in assay [12] (setting [24]), 102%. For the same compound, the remaining activity at 10 µM in [13] (setting [24]) came out at 95.1%; in assay [14] (setting [24]), 83.7%; in assay [15] (setting [24]), 67.4%; in [16] (setting [24]), 80%; in assay [17] (setting [24]) it was 91.5%; in assay [18] (setting [24]), 114%. For the same compound, the remaining activity at 10 µM in assay [19] (setting [24]) turned out to be 137%; in [20] (setting [24]), 109%; in assay [21] (setting [24]), 108%; in assay [22] (setting [24]), 75.8%; in assay [23] (setting [24]), 59.1%.

For `COc1cc(F)ccc1-c1cc(Nc2cc(CS(C)(=N)=O)ccn2)ncc1F` (stereo not shown) [BAY-1251152], the remaining activity at 10 µM was found to be 106% in [1] (setting [25]); 109% in [2] (setting [25]); 94.2% in [3] (setting [25]); 88.3% in assay [4] (setting [25]); 107% in [5] (setting [25]); 84.2% in assay [6] (setting [25]). Also, the remaining activity at 10 µM in [7] (setting [25]) is 114%; in [8] (setting [25]), 105%; in [9] (setting [25]), 107%; in assay [10] (setting [25]), 73.8%; in [11] (setting [25]), 106%; in assay [12] (setting [25]) it was 106%. Moreover, the remaining activity at 10 µM in [13] (setting [25]) worked out at 95.9%; in [14] (setting [25]) it was 57.7%; in assay [15] (setting [25]) it was 83.2%; in assay [16] (setting [25]) it was 74.4%; in [17] (setting [25]), 95.9%; in assay [18] (setting [25]) it was 109%. Also, the remaining activity at 10 µM in assay [19] (setting [25]) worked out at 129%; in assay [20] (setting [25]) it was 110%; in [21] (setting [25]), 102%; in assay [22] (setting [25]) it was 68.5%; in [23] (setting [25]), 69.2%.
